Consider two molecules from paper PMC7113684 (Antiviral Research, 2017).

One data set relates to Huh-7 cells. As to conditions: human.
A further data set is described as follows: in vitro. As to conditions: human.
The target of a further data set is SARS-CoV 3CL^pro (Severe acute respiratory syndrome coronavirus, UniProt P0C6X7). The following applies: cited from earlier work.

Where a name gives a salt, the structure may show the parent alone. A value given as a limit tells only on which side of the number the result lay.

As to `Nc1ccn([C@@H]2O[C@H](CO)[C@@H](O)C2(F)F)c(=O)n1` [GEM, Gemcitabine hydrochloride], the “decrease of viability of mock cells” value with Huh-7 cells was at least 20%. In addition, the CC50 in the data set “in vitro” was above 100 µM.
As for `CCOC(=O)/C=C/[C@H](C[C@@H]1CCNC1=O)NC(=O)[C@@H](CC(=O)[C@@H](NC(=O)c1cc(C)on1)C(C)C)Cc1ccc(F)cc1` [AG7088], the “activity against SARS-CoV 3CL^pro” value on SARS-CoV 3CL^pro was “inactive”.
